Data from US10526309B2, “Pan-TAM inhibitors and Mer/Axl dual inhibitors” (The University of North Carolina at Chapel Hill, priority 2015, dated 2020).

What was measured:
Type in all cases: biochemical
Axl = target: T1, Axl (Homo sapiens, UniProt P30530); assay: Axl kinase inhibition IC50; details: Example 6
T1 sequence (P30530 26-894): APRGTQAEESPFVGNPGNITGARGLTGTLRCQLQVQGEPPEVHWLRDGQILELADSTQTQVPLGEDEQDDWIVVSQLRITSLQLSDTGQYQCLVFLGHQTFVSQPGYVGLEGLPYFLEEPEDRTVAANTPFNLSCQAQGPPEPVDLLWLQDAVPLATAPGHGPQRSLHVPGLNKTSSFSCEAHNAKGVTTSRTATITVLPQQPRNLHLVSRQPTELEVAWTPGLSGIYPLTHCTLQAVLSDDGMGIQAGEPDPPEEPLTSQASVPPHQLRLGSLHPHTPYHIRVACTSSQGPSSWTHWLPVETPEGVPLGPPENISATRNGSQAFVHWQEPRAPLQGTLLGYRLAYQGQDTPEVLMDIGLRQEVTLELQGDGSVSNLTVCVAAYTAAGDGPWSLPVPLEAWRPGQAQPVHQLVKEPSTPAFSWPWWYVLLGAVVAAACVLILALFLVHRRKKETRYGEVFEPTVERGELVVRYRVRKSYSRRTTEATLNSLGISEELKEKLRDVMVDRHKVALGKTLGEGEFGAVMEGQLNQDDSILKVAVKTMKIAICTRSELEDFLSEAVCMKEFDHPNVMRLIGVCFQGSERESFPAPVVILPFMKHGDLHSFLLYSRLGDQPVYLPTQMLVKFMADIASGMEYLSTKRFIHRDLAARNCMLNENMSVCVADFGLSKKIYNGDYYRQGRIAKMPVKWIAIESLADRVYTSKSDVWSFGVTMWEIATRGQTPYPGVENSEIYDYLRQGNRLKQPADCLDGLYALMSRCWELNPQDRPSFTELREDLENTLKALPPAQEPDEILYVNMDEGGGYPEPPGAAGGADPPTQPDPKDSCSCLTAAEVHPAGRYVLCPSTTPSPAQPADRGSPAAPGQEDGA

Tyro3 = target: T2, Tyro3 (Homo sapiens, UniProt Q06418); assay: Tyro3 kinase inhibition IC50; details: Example 6; read-out: Tyro IC50
T2 sequence (Q06418 41-890): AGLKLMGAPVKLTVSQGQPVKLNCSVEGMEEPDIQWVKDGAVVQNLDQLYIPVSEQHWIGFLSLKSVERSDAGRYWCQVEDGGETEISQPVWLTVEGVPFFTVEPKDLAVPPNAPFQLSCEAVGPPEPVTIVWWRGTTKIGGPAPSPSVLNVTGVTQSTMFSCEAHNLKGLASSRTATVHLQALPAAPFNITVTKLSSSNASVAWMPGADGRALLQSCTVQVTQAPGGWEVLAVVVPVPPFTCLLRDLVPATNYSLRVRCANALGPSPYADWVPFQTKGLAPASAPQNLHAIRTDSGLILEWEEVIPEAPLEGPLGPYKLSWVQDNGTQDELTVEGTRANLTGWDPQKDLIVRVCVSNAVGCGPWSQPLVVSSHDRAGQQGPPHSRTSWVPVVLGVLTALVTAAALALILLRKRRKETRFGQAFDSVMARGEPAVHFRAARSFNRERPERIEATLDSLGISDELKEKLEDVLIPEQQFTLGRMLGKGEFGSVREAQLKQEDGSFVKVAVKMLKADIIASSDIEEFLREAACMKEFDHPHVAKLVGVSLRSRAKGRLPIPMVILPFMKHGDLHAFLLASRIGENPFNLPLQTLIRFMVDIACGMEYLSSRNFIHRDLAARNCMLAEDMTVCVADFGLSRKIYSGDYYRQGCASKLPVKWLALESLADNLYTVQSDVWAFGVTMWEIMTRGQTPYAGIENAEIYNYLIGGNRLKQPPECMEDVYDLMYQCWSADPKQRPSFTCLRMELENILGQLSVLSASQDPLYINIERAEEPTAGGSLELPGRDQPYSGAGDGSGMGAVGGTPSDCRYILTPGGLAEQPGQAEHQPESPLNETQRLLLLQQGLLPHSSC

FLT3 = target: T3, FLT3 (Homo sapiens, UniProt P36888); assay: FLT3 kinase inhibition IC50; details: Example 6
T3 sequence (P36888 27-993): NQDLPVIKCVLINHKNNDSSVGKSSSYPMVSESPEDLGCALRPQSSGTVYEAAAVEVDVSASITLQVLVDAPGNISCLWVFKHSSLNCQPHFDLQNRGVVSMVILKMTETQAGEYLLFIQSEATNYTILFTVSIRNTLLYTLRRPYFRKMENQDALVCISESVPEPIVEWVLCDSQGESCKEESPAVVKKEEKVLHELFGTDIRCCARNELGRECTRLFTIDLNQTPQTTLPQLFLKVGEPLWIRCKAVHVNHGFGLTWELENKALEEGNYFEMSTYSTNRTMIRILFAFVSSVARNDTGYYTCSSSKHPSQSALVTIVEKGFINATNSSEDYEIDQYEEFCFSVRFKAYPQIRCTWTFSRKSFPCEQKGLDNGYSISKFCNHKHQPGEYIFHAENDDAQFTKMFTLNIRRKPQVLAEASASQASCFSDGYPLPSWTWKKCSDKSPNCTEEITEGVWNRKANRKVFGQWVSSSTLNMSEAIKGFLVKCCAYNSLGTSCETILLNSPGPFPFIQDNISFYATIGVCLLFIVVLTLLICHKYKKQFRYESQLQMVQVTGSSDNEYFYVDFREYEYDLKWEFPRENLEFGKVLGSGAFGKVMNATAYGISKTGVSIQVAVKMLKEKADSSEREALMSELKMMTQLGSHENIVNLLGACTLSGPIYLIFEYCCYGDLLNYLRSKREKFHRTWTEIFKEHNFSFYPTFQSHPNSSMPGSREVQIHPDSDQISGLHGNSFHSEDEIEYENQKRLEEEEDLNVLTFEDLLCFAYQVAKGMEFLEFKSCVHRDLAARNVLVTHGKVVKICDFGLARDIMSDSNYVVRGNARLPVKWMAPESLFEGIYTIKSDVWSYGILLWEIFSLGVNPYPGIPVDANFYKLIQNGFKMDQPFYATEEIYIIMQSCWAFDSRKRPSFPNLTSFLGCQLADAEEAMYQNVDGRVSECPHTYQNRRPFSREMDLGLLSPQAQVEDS

Mer = target: T4, Mer (Homo sapiens, UniProt Q12866); assay: Mer kinase inhibition IC50; details: Example 6; read-out: MerTK IC50
T4 sequence (Q12866 21-999): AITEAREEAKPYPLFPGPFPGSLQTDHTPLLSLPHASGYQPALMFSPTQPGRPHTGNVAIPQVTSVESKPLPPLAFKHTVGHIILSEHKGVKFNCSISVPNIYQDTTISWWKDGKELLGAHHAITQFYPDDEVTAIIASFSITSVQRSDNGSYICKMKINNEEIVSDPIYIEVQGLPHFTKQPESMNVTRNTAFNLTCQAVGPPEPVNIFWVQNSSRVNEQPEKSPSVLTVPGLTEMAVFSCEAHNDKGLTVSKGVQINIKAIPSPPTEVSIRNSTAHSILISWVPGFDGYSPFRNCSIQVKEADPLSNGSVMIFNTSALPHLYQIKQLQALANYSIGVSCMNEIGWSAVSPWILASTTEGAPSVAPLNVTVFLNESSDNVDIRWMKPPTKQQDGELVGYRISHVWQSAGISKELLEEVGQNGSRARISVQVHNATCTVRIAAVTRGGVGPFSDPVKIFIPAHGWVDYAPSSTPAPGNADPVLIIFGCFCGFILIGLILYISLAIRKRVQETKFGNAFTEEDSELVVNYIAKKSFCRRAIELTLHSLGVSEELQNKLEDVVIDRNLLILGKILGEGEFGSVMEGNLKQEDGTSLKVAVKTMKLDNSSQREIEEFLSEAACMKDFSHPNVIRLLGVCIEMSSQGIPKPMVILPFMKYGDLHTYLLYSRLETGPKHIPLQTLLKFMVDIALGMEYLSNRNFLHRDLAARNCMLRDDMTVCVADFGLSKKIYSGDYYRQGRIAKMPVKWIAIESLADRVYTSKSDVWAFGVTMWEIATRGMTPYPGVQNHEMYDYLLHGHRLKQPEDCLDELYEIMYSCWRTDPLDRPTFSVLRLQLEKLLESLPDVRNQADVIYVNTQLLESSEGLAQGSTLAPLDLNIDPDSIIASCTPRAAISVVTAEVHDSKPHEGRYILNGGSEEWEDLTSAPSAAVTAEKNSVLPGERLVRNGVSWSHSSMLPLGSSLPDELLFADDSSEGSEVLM

IC50 (Axl): 7 µM
IC50 (Tyro3): 15 µM
IC50 (FLT3): 0.22 µM
IC50 (Mer): 0.55 µM
SMILES: CCCCN(C)c1ncc2c(-c3ccc(F)cc3)nn(C[C@H]3CC[C@H](N)CC3)c2n1 [UNC1653, reference compound]
